Results on 34 molecules are retold here after patent publication US20240239772A1, “PROTEASE INHIBITORS AND METHODS OF USE” (The Cleveland Clinic Foundation, priority 2021, published 2024).

Like-named read-outs stand apart in the source and are kept apart here.

The subject of assay [1] is SARS-CoV-2. The experiment in a line: microbe, parasite or virus in culture. The note with it: Severe acute respiratory syndrome coronavirus 2, Vero C1008, read-out: Plaque Reduction Assay EC50. It is filed as cell-based. (In general: Plaque reduction counts the foci of infection that form in a cell layer.)
The test system of assay [2] is SARS-CoV-2. The experiment in a line: microbe, parasite or virus in culture. It is filed as cell-based. The note with it: Severe acute respiratory syndrome coronavirus 2, Vero C1008, 68 h, read-out: CPE Inhibition Assay EC50.
The target in assay [3] is SARS-CoV-2 3CLpro (Severe acute respiratory syndrome coronavirus 2 (2019-nCoV) (SARS-CoV-2), UniProt P0DTD1). The experiment in a line: biochemical. It is filed as biochemical.

On to `O=C(Cn1nnc2ccccc21)N(Cc1ccsc1)c1ccc(-c2cccnc2)cc1` [Compound 17b, 2-(1H-benzo[d][1,2,3]triazol-1-yl)-N-(4-(pyridin-3-yl)phenyl)-N-(thiophen-3-ylmethyl)acetamide, reference compound], for which the EC50 (as a rule, the midpoint of the concentration-response curve) stood at 14600 ± 1220 nM in assay [1] and 12100 ± 310 nM in assay [2].
Take `O=C(Cn1nnc2ccccc21)N(Cc1cc(F)cc(F)c1)c1ccc(-c2c[nH]nn2)cc1` [Compound 105, 2-(benzotriazol-1-yl)-N-[(3,5-difluorophenyl)methyl]-N-[4-(1H-triazol-4-yl)phenyl]acetamide]: the IC50 (usually the midpoint of a concentration-inhibition curve) in assay [3] (read-out: SARS-CoV-2 IC50) was found to be 180 nM.
In the case of `O=C(Cn1nnc2ccccc21)N(Cc1ccc(F)c(Cl)c1)c1ccc(-c2cccnc2)cc1` [Compound 29, 2-(Benzotriazol-1-yl)-N-[(3-chloro-4-fluoro-phenyl)methyl]-N-[4-(3-pyridyl)phenyl]acetamide], the half-maximal inhibitory concentration (IC50) in assay [3] (read-out: SARS-CoV-2 IC50) was found to be 8530 ± 1820 nM.
`CC(c1cc(F)cc(F)c1)N(C(=O)Cn1nnc2ccccc21)c1ccc(-c2c[nH]cn2)cc1` (centres unmarked) [Compound 88, 2-(benzotriazol-1-yl)-N-[1-(3,5-difluorophenyl)ethyl]-N-[4-(1H-imidazol-4-yl)phenyl]acetamide]: the IC50 in assay [3] (read-out: SARS-CoV-2 IC50) was determined as 160 nM.
Regarding `O=C1CC(c2ccc(N(Cc3cc(F)cc(F)c3)C(=O)Cn3nnc4ccccc43)cc2)CN1` (centres unmarked) [Compound 115, 2-(benzotriazol-1-yl)-N-[(3,5-difluorophenyl)methyl]-N-[4-(5-oxopyrrolidin-3-yl)phenyl]acetamide], in assay [3] (read-out: SARS-CoV-2 IC50), the IC50 was 240 nM.
The same measure, in the same setting: under `O=C(Cn1nnc2ccccc21)N(CC1CCC1)c1ccc(-c2c[nH]cn2)cc1` [Compound 79, 2-(benzotriazol-1-yl)-N-(cyclobutylmethyl)-N-[4-(1H-imidazol-4-yl)phenyl]acetamide] stands 1100 nM; under `Cn1cc(-c2ccc(N(Cc3ccsc3)C(=O)Cn3nnc4ccccc43)cc2)cn1` [Compound 18, 2-(Benzotriazol-1-yl)-N-[4-(1-methylpyrazol-4-yl)phenyl]-N-(3-thienylmethyl)acetamide], 20400 ± 420 nM.
The same measure, in the same setting: the figure for `O=C(Cn1nnc2ccccc21)N(Cc1cc(F)cc(F)c1)c1ccc(C2=CCNC2)cc1` [Compound 91, 2-(benzotriazol-1-yl)-N-[(3,5-difluorophenyl)methyl]-N-[4-(2,5-dihydro-1H-pyrrol-3-yl)phenyl]acetamide] is 130 nM; for `O=C(Cn1nnc2ccccc21)N(Cc1ccc(Cl)c(F)c1)c1ccc(-c2c[nH]cn2)cc1` [Compound 116, 2-(benzotriazol-1-yl)-N-[(4-chloro-3-fluoro-phenyl)methyl]-N-[4-(1H-imidazol-4-yl)phenyl]acetamide] it is 2500 nM.
The same measure, in the same setting: the figure for `O=C(O)Cc1ccc(N(Cc2cc(F)cc(F)c2)C(=O)Cn2nnc3ccccc32)cc1` [Compound 93, 2-[4-[[2-(benzotriazol-1-yl)acetyl]-[(3,5-difluorophenyl)methyl]amino]phenyl]acetic acid] is 23000 nM; for `COc1ccc(Cl)cc1CN(C(=O)Cn1nnc2ccccc21)c1ccc(-c2c[nH]cn2)cc1` [Compound 86, 2-(benzotriazol-1-yl)-N-[(5-chloro-2-methoxy-phenyl)methyl]-N-[4-(1H-imidazol-4-yl)phenyl]acetamide] it is 180 nM.
Regarding `COc1ccc(F)cc1CN(C(=O)Cn1nnc2ccccc21)c1ccc(-c2c[nH]cn2)cc1` [Compound 110, 2-(benzotriazol-1-yl)-N-[(5-fluoro-2-methoxy-phenyl)methyl]-N-[4-(1H-imidazol-4-yl)phenyl]acetamide], the IC50 in assay [3] (read-out: SARS-CoV-2 IC50) was 200 nM.
On the same count and under the same terms, under `O=C(Cn1nnc2ccccc21)N(Cc1cccc(Cl)c1F)c1ccc(-c2c[nH]cn2)cc1` [Compound 84, 2-(benzotriazol-1-yl)-N-[(3-chloro-2-fluoro-phenyl)methyl]-N-[4-(1H-imidazol-4-yl)phenyl]acetamide] stands 230 nM; under `CC(=O)NCc1ccc(N(Cc2cc(F)cc(F)c2)C(=O)Cn2nnc3ccccc32)cc1` [Compound 123, N-[4-(acetamidomethyl)phenyl]-2-(benzotriazol-1-yl)-N-[(3,5-difluorophenyl)methyl]acetamide], 780 nM; under `O=C(Cn1nnc2ccccc21)N(Cc1cccc(F)c1)c1ccc(-c2c[nH]cn2)cc1` [Compound 82, 2-(benzotriazol-1-yl)-N-[(3-fluorophenyl)methyl]-N-[4-(1H-imidazol-4-yl)phenyl]acetamide], 360 nM.
Take `O=C(Cn1nnc2ccccc21)N(CC1CCCC1)c1ccc(-c2cccnc2)cc1` [Compound 25, 2-(1H-Benzo[d][1,2,3]triazol-1-yl)-N-(cyclopentylmethyl)-N-(4-(pyridin-3-yl)phenyl)acetamide]: the IC50 in assay [3] (read-out: SARS-CoV-2 IC50) was 1160 ± 190 nM.
On the same count and under the same terms, under `O=C(Cn1nnc2ccccc21)N(Cc1cncc(C(F)(F)F)c1)c1ccc(-c2c[nH]cn2)cc1` [Compound 96, 2-(benzotriazol-1-yl)-N-[4-(1H-imidazol-4-yl)phenyl]-N-[[5-(trifluoromethyl)-3-pyridyl]methyl]acetamide] stands 350 nM; under `O=C(Cn1nnc2ccccc21)N(Cc1ccnc(C(F)(F)F)c1)c1ccc(-c2c[nH]cn2)cc1` [Compound 95, 2-(benzotriazol-1-yl)-N-[4-(1H-imidazol-4-yl)phenyl]-N-[[2-(trifluoromethyl)-4-pyridyl]methyl]acetamide], 2900 nM.
The molecule `CC(c1cc(F)cc(Cl)c1)N(C(=O)Cn1nnc2ccccc21)c1ccc(-c2c[nH]cn2)cc1` (racemic) [Compound 73, 2-(benzotriazol-1-yl)-N-[4-(1H-imidazol-4-yl)phenyl]-N-[rac-(1R)-1-(3-chloro-5-fluoro-phenyl)ethyl]acetamide] showed an IC50 in assay [3] of 100 nM.
For `Cc1[nH]ncc1-c1ccc(N(Cc2cccc(Cl)c2)C(=O)Cn2nnc3ccccc32)cc1` [Compound 69, 2-(1H-benzo[d][1,2,3]triazol-1-yl)-N-(3-chlorobenzyl)-N-(4-(5-methyl-1H-pyrazol-4-yl)phenyl)acetamide], the IC50 in assay [3] (read-out: SARS-CoV-2 IC50) is 380 nM.
Same read-out and setting: the figure for `O=C(Cn1nnc2ccccc21)N(Cc1c(F)cccc1F)c1ccc(-c2c[nH]cn2)cc1` [Compound 98, 2-(benzotriazol-1-yl)-N-[(2,6-difluorophenyl)methyl]-N-[4-(1H-imidazol-4-yl)phenyl]acetamide] is 980 nM; for `O=C(Cn1nnc2ccccc21)N(Cc1cc(F)cc(Cl)c1)c1ccc(C2CNC2)cc1` [Compound 121, N-[4-(azetidin-3-yl)phenyl]-2-(benzotriazol-1-yl)-N-[(3-chloro-5-fluoro-phenyl)methyl]acetamide] it is 100 nM.
Still for that read-out and setting: the figure for `O=C1C=C(c2ccc(N(Cc3cc(F)cc(F)c3)C(=O)Cn3nnc4ccccc43)cc2)CN1` [Compound 109, 2-(benzotriazol-1-yl)-N-[(3,5-difluorophenyl)methyl]-N-[4-(5-oxo-1,2-dihydropyrrol-3-yl)phenyl]acetamide] is 340 nM.
On the same count and under the same terms, the figure for `O=C(Cn1nnc2ccccc21)N(Cc1cc(F)cc(F)c1)c1ccc(C2CCNCC2)cc1` [Compound 90, 2-(benzotriazol-1-yl)-N-[(3,5-difluorophenyl)methyl]-N-[4-(4-piperidyl)phenyl]acetamide] is 1700 nM.
In the case of `O=C(Cn1nnc2ccccc21)N(CC1CCCC1)c1ccc(-c2ccc[nH]c2=O)cc1` [Compound 68, 2-(1H-benzo[d][1,2,3]triazol-1-yl)-N-(cyclopentylmethyl)-N-(4-(2-oxo-1,2-dihydropyridin-3-yl)phenyl)acetamide], in assay [3] (read-out: SARS-CoV-2 IC50), the half-inhibitory concentration (IC50) came out at 1300 nM.
On the same count and under the same terms, the figure for `O=C(Cn1nnc2ccccc21)N(Cc1cc(F)cc(F)c1)c1ccc(C2CNC2)cc1` [Compound 118, N-[4-(azetidin-3-yl)phenyl]-2-(benzotriazol-1-yl)-N-[(3,5-difluorophenyl)methyl]acetamide] is 78 nM.
Still for that read-out and setting: the figure for `O=C(Cn1nnc2ccccc21)N(Cc1cscn1)c1ccc(-c2cccnc2)cc1` [Compound 27, 2-(Benzotriazol-1-yl)-N-[4-(3-pyridyl)phenyl]-N-(thiazol-4-ylmethyl)acetamide] is 1590 ± 440 nM; for `O=C(Cn1nnc2ccccc21)N(CC1CCC1)c1ccc(-c2cccnc2)cc1` [Compound 24, 2-(1H-Benzo[d][1,2,3]triazol-1-yl)-N-(cyclobutylmethyl)-N-(4-(pyridin-3-yl)phenyl)acetamide] it is 830 ± 30 nM; for `Cn1cnc(-c2ccc(N(Cc3ccsc3)C(=O)Cn3nnc4ccccc43)cc2)c1` [Compound 20, 2-(Benzotriazol-1-yl)-N-[4-(1-methylimidazol-4-yl)phenyl]-N-(3-thienylmethyl)acetamide] it is 9550 ± 990 nM.
As for `CC(C)CN(C(=O)Cn1nnc2ccccc21)c1ccc(-c2c[nH]cn2)cc1` [Compound 89, 2-(benzotriazol-1-yl)-N-[4-(1H-imidazol-4-yl)phenyl]-N-isobutyl-acetamide], the IC50 in assay [3] (read-out: SARS-CoV-2 IC50) came out at 680 nM.
Same read-out and setting: under `NC(=O)Cc1ccc(N(Cc2cc(F)cc(F)c2)C(=O)Cn2nnc3ccccc32)cc1` [Compound 94, 2-[4-[[2-(benzotriazol-1-yl)acetyl]-[(3,5-difluorophenyl)methyl]amino]phenyl]acetamide] stands 670 nM.
The same measure, in the same setting: the figure for `O=C(Cn1nnc2ccccc21)N(Cc1cc(F)cc(OC(F)(F)F)c1)c1ccc(-c2c[nH]cn2)cc1` [Compound 120, 2-(benzotriazol-1-yl)-N-[[3-fluoro-5-(trifluoromethoxy)phenyl]methyl]-N-[4-(1H-imidazol-4-yl)phenyl]acetamide] is 120 nM.
For the molecule `O=C(Cn1nnc2ccccc21)N(CC1COC1)c1ccc(-c2cccnc2)cc1` [Compound 70, 2-(1H-benzo[d][1,2,3]triazol-1-yl)-N-(oxetan-3-ylmethyl)-N-(4-(pyridin-3-yl)phenyl)acetamide], the IC50 in assay [3] (read-out: SARS-CoV-2 IC50) was found to be 32000 nM.
Same read-out and setting: the figure for `NCCc1ccc(N(Cc2cc(F)cc(F)c2)C(=O)Cn2nnc3ccccc32)cc1` [Compound 107, N-[4-(2-aminoethyl)phenyl]-2-(benzotriazol-1-yl)-N-[(3,5-difluorophenyl)methyl]acetamide] is 430 nM.
